Source: ChEMBL document CHEMBL3596195, “Novel cajaninstilbene acid derivatives as antibacterial agents” (Eur J Med Chem, 2015)
In brackets after ≈: the same amount, converted by molar mass.

Tests used:
Format in all cases: functional
Staphylococcus aureus [1] = test: Antibacterial activity against methicillin-resistant Staphylococcus aureus ATCC523512 assessed as bacterial growth inhibition after 24 hrs by broth dilution method; conditions: ATCC523512, 24 h
Staphylococcus aureus [2] = test: Antibacterial activity against methicillin-resistant Staphylococcus aureus ATCC425055 assessed as bacterial growth inhibition after 24 hrs by broth dilution method; conditions: ATCC425055, 24 h
Staphylococcus aureus [3] = test: Antibacterial activity against methicillin-resistant Staphylococcus aureus ATCC43300 assessed as bacterial growth inhibition after 24 hrs by broth dilution method; conditions: ATCC43300, 24 h
Bacillus subtilis = test: Antibacterial activity against Bacillus subtilis ATCC6633 assessed as bacterial growth inhibition after 24 hrs by broth dilution method; conditions: ATCC6633, 24 h
Pseudomonas aeruginosa = test: Antibacterial activity against Pseudomonas aeruginosa ATCC2785 assessed as bacterial growth inhibition after 24 hrs by broth dilution method; conditions: ATCC2785, 24 h
Staphylococcus aureus [4] = test: Antibacterial activity against Staphylococcus aureus ATCC25923 assessed as bacterial growth inhibition after 24 hrs by broth dilution method; conditions: ATCC25923, 24 h
Staphylococcus aureus [5] = test: Antibacterial activity against methicillin-resistant Staphylococcus aureus ATCC510019 assessed as bacterial growth inhibition after 24 hrs by broth dilution method; conditions: ATCC510019, 24 h
Proteus vulgaris = test: Antibacterial activity against Proteus vulgaris ATCC49101 assessed as bacterial growth inhibition after 24 hrs by broth dilution method; conditions: ATCC49101, 24 h
Escherichia coli = test: Antibacterial activity against Escherichia coli ATCC25922 assessed as bacterial growth inhibition after 24 hrs by broth dilution method; conditions: ATCC25922, 24 h
Staphylococcus aureus [6] = test: Antibacterial activity against methicillin-resistant Staphylococcus aureus ATCC62202 assessed as bacterial growth inhibition after 24 hrs by broth dilution method; conditions: ATCC62202, 24 h
Staphylococcus aureus [7] = test: Antibacterial activity against methicillin-resistant Staphylococcus aureus ATCC52056 assessed as bacterial growth inhibition after 24 hrs by broth dilution method; conditions: ATCC52056, 24 h
Staphylococcus aureus [8] = test: Antibacterial activity against methicillin-resistant Staphylococcus aureus ATCC513045 assessed as bacterial growth inhibition after 24 hrs by broth dilution method; conditions: ATCC513045, 24 h
Staphylococcus aureus [9] = test: Antibacterial activity against methicillin-resistant Staphylococcus aureus ATCC515992 assessed as bacterial growth inhibition after 24 hrs by broth dilution method; conditions: ATCC515992, 24 h
[10] = test system: Staphylococcus epidermidis; test: Antibacterial activity against Staphylococcus epidermidis ATCC12228 assessed as bacterial growth inhibition after 24 hrs by broth dilution method; conditions: ATCC12228, 24 h
Staphylococcus aureus [11] = test: Antibacterial activity against methicillin-resistant Staphylococcus aureus ATCC51033 assessed as bacterial growth inhibition after 24 hrs by broth dilution method; conditions: ATCC51033, 24 h

SMILES | MIC (Staphylococcus aureus [1]) | MIC (Staphylococcus aureus [2]) | MIC (Staphylococcus aureus [3]) | MIC (Bacillus subtilis) | MIC (Pseudomonas aeruginosa) | MIC (Staphylococcus aureus [4]) | MIC (Staphylococcus aureus [5]) | MIC (Proteus vulgaris) | MIC (Escherichia coli) | MIC (Staphylococcus aureus [6]) | MIC (Staphylococcus aureus [7]) | MIC (Staphylococcus aureus [8]) | MIC (Staphylococcus aureus [9]) | MIC [10] | MIC (Staphylococcus aureus [11])
COC(=O)c1c(O)cc(OC)cc1/C=C/c1ccccc1F | > 128 µg/mL | > 128 µg/mL | > 128 µg/mL | 128 µg/mL (≈ 423 µM) | 128 µg/mL (≈ 423 µM) | > 128 µg/mL | > 128 µg/mL | > 128 µg/mL | > 128 µg/mL | > 128 µg/mL | > 128 µg/mL | > 128 µg/mL | > 128 µg/mL | 128 µg/mL (≈ 423 µM) | > 128 µg/mL
COC(=O)c1c(O)cc(OC)cc1/C=C/c1cccc(F)c1 | > 128 µg/mL | > 128 µg/mL | > 128 µg/mL | 128 µg/mL (≈ 423 µM) | 128 µg/mL (≈ 423 µM) | > 128 µg/mL | 128 µg/mL (≈ 423 µM) | > 128 µg/mL | 128 µg/mL (≈ 423 µM) | > 128 µg/mL | > 128 µg/mL | > 128 µg/mL | > 128 µg/mL | 128 µg/mL (≈ 423 µM) | > 128 µg/mL
COC(=O)c1c(O)cc(OC)cc1/C=C/c1ccc(F)cc1 | > 128 µg/mL | > 128 µg/mL | > 128 µg/mL | > 128 µg/mL | > 128 µg/mL | > 128 µg/mL | > 128 µg/mL | > 128 µg/mL | > 128 µg/mL | > 128 µg/mL | > 128 µg/mL | > 128 µg/mL | 128 µg/mL (≈ 423 µM) | > 128 µg/mL | > 128 µg/mL
COC(=O)c1c(O)cc(OC)cc1/C=C/c1ccc(Cl)cc1 | > 128 µg/mL | > 128 µg/mL | > 128 µg/mL | 128 µg/mL (≈ 402 µM) | > 128 µg/mL | > 128 µg/mL | > 128 µg/mL | > 128 µg/mL | > 128 µg/mL | 128 µg/mL (≈ 402 µM) | > 128 µg/mL | > 128 µg/mL | > 128 µg/mL | > 128 µg/mL | > 128 µg/mL
COC(=O)c1c(O)cc(OC)cc1/C=C/c1ccc(OC)cc1 | > 128 µg/mL | > 128 µg/mL | > 128 µg/mL | > 128 µg/mL | 128 µg/mL (≈ 407 µM) | > 128 µg/mL | 128 µg/mL (≈ 407 µM) | > 128 µg/mL | > 128 µg/mL | > 128 µg/mL | > 128 µg/mL | > 128 µg/mL | > 128 µg/mL | > 128 µg/mL | > 128 µg/mL
COC(=O)c1c(O)cc(OC)cc1/C=C/c1ccc(C)cc1 | > 128 µg/mL | 128 µg/mL (≈ 429 µM) | > 128 µg/mL | > 128 µg/mL | > 128 µg/mL | > 128 µg/mL | > 128 µg/mL | > 128 µg/mL | > 128 µg/mL | > 128 µg/mL | > 128 µg/mL | > 128 µg/mL | > 128 µg/mL | > 128 µg/mL | 128 µg/mL (≈ 429 µM)
COC(=O)c1c(O)cc(OC)cc1/C=C/c1cc(OC)c(OC)c(OC)c1 | > 128 µg/mL | > 128 µg/mL | > 128 µg/mL | > 128 µg/mL | > 128 µg/mL | > 128 µg/mL | > 128 µg/mL | > 128 µg/mL | > 128 µg/mL | > 128 µg/mL | > 128 µg/mL | > 128 µg/mL | 64 µg/mL (≈ 171 µM) | > 128 µg/mL | 128 µg/mL (≈ 342 µM)
COC(=O)c1c(O)cc(OC)cc1/C=C/c1cccc(C#N)c1 | > 128 µg/mL | > 128 µg/mL | > 128 µg/mL | > 128 µg/mL | > 128 µg/mL | > 128 µg/mL | > 128 µg/mL | > 128 µg/mL | > 128 µg/mL | > 128 µg/mL | > 128 µg/mL | > 128 µg/mL | 64 µg/mL (≈ 207 µM) | > 128 µg/mL | 128 µg/mL (≈ 414 µM)
COC(=O)c1c(O)cc(OC)cc1/C=C/c1ccc(C(F)(F)F)cc1 | > 128 µg/mL | > 128 µg/mL | > 128 µg/mL | > 128 µg/mL | > 128 µg/mL | > 128 µg/mL | > 128 µg/mL | > 128 µg/mL | > 128 µg/mL | > 128 µg/mL | > 128 µg/mL | 128 µg/mL (≈ 363 µM) | > 128 µg/mL | 128 µg/mL (≈ 363 µM) | > 128 µg/mL
COC(=O)c1c(O)cc(OC)cc1/C=C/c1ccc(F)cc1F | > 128 µg/mL | 128 µg/mL (≈ 400 µM) | 128 µg/mL (≈ 400 µM) | > 128 µg/mL | > 128 µg/mL | > 128 µg/mL | > 128 µg/mL | > 128 µg/mL | > 128 µg/mL | > 128 µg/mL | > 128 µg/mL | > 128 µg/mL | > 128 µg/mL | > 128 µg/mL | 128 µg/mL (≈ 400 µM)
CCn1cc(C(=O)O)c(=O)c2cc(F)c(N3CCNCC3)cc21 [NORFLOXACIN] | 8 µg/mL (≈ 25.1 µM) | 4 µg/mL (≈ 12.5 µM) | 4 µg/mL (≈ 12.5 µM) | 2 µg/mL (≈ 6.26 µM) | 16 µg/mL (≈ 50.1 µM) | 2 µg/mL (≈ 6.26 µM) | 8 µg/mL (≈ 25.1 µM) | 16 µg/mL (≈ 50.1 µM) | 32 µg/mL (≈ 100 µM) | 8 µg/mL (≈ 25.1 µM) | 8 µg/mL (≈ 25.1 µM) | 4 µg/mL (≈ 12.5 µM) | 16 µg/mL (≈ 50.1 µM) | 2 µg/mL (≈ 6.26 µM) | 4 µg/mL (≈ 12.5 µM)
CC1(C)S[C@@H]2[C@H](NC(=O)Cc3ccccc3)C(=O)N2[C@H]1C(=O)O [PENICILLIN G] | 32 µg/mL (≈ 95.7 µM) | 32 µg/mL (≈ 95.7 µM) | 32 µg/mL (≈ 95.7 µM) | 2 µg/mL (≈ 5.98 µM) | 16 µg/mL (≈ 47.8 µM) | 2 µg/mL (≈ 5.98 µM) | 32 µg/mL (≈ 95.7 µM) | > 16 µg/mL | 64 µg/mL (≈ 191 µM) | 32 µg/mL (≈ 95.7 µM) | 64 µg/mL (≈ 191 µM) | 32 µg/mL (≈ 95.7 µM) | 32 µg/mL (≈ 95.7 µM) | 2 µg/mL (≈ 5.98 µM) | 32 µg/mL (≈ 95.7 µM)
